Results on 7 molecules are retold here after patent publication US10828378B2, “Nucleic acid construct for expression of oxidative stress indicator and use thereof” (Riken, priority 2011, dated 2020).

The test system of assay [1] is OKD48-Luc reporter (Keap1-Nrf2 pathway). In words: Dual luciferase assay using the OKD48-Luc reporter in HeLa cells. Type of assay: cell-based, human. The following applies: for response of HeLa cells containing OKD48-Luc (luciferase assay): 8 h or 16 h, 10 μM ASN, 100 μM DEM, 2.5 μg/ml tunicamycin, 1 μM thapsigargin, 1 mM DTT, 100 μM etoposide, 100 μg/ml TTFA, FIG. 5A. As for the experimental part:
HeLa cells or HEK293T cells were cultured in a DMEM medium supplemented with 100 U/ml penicillin, 100 μg/ml streptomycin, and 10% fetal bovine serum at 37° C. in an atmosphere containing 5% CO2. The plasmid DNAs were inserted into the cells of each line using the calcium phosphate-DNA precipitation method. In order to test cellular response to agents, the cells were treated with 10 μM sodium arsenite (ASN), 100 μM diethyl maleate (DEM), 200 μM H2O2, 2.5 μg/ml tunicamycin, 1 μM thapsigargin, 1 mM DTT, 100 μM etoposide, or 100 μg/ml thenoyltrifluoroacetone (TTFA) over varying times.
In dual luciferase assay using the OKD48-Luc reporter, phRL-TK (Promega Corp.) was used as an internal control. The HeLa cells were seeded on a 24-well plate and then transfected with the plasmid DNAs. At 24 hours after the transfection, the cells were lysed for luciferase assay. Each reporter activity was measured using a luciferase assay system (Promega Corp.) and a luminometer (Berthold Japan Co., Ltd.). The results were shown as mean±SEM of three experiments. Each value was indicated in terms of fold induction. This fold induction was normalized for that of an untreated sample (NT) (FIG. 5A), an untreated sample (NT) free from Nrf2 overexpression (FIG. 5D), or an untreated sample (NT) free from Keap1 overexpression (FIG. 5E). In this calculation, the fold induction of each NT was defined as 1.0.

The test system of a further assay is OKD48-Venus reporter. In words: Fluorescence imaging of OKD48-Venus reporter in HEK293T cells. Type of assay: cell-based, human. The conditions noted are these: 8 h treatment, FIG. 7A. As for the experimental part: HEK293T cells were transfected with the OKD48-Venus construct and then treated for 8 hours in the presence or absence of sodium arsenite (ASN) or diethyl maleate. Their fluorescence images were obtained together with phase-contrast images. […] HEK293T cells were transfected with the OKD48-Venus construct and then treated for 8 hours in the presence or absence of sodium arsenite (ASN), diethyl maleate (DEM), H2O2, tunicamycin (Tun), thapsigargin (Tg), dithiothreitol (DTT), etoposide (Etp), or thenoyltrifluoroacetone (TTFA). Fluorescence from their cell lysates was measured and normalized for luciferase in the cotransfected cells. In the diagram, n.d. represents not detected. […] Their cell lysates were analyzed by Western blotting using an anti-GFP antibody or an anti-GAPDH antibody. […]
In order to take images of the cells, the HEK293T cells were seeded over a 6-well plate and then transfected with the plasmid DNAs. At 24 hours after the transfection, fluorescence images were obtained using FSX100 (Olympus Corp.). In order to measure the fluorescence of cell lysates, the cells were lysed in a digitonin buffer (50 mM Tris-HCl (pH 7.5), 1 mM EDTA, 10 mM EGTA, and 10 μM digitonin) at 37° C. for 30 minutes. […] The fluorescence intensity of each sample was normalized against the activity of luciferase derived from the cotransfected cells. […]

The subject of a further assay is endogenous Nrf2. In words: Western blot of endogenous Nrf2 in HeLa cells. Type of assay: cell-based, human. The following applies: 8 h or 16 h treatment, FIG. 5C. As for the experimental part: (§1) HeLa cells were transfected with the OKD48 construct. Luciferase assay was conducted after treatment for 8 hours or 16 hours in the presence or absence of different stressors (sodium arsenite (ASN), diethyl maleate (DEM), H2O2, tunicamycin (Tun), thapsigargin (Tg), dithiothreitol (DTT), etoposide (Etp), and thenoyltrifluoroacetone (TTFA)). […] HEK293T cells were transfected with the OKD48 construct and treated for 8 hours in the presence or absence of different stressors. The cell lysates were analyzed by Western blotting using an anti-Luc antibody or an anti-GAPDH antibody. […] HeLa cells were treated for 8 hours or 16 hours in the presence or absence of different stressors. Then, the cell lysates were analyzed by Western blotting using an anti-Luc antibody or an anti-GAPDH antibody. […]
(§2) The cells were lysed in an SDS sample buffer (50 mM Tris-HCl (pH 6.8), 2% SDS, 50 mM DTT, 10% glycerol, and 1 μg/ml bromophenol blue). […] After the electrophoresis, the proteins were electrically transferred to a polyvinylidene fluoride porous membrane and immunologically detected by a standard approach using a monoclonal antibody against luciferase (Promega Corp.), a monoclonal antibody against GFP (Nacalai Tesque, Inc.), a monoclonal antibody against GAPDH (Cell Signaling Technology, Inc.), or a polyclonal antibody against Nrf2 (Santa Cruz Biotechnology, Inc.).

The test system of another assay is OKD48-Luc. As to the kind of experiment: Western blot of OKD48-Luc protein with anti-Luc antibody in HEK293T cells. Type of assay: cell-based, human. The following applies: 8 h treatment, FIG. 5B. As to the method: as §1, §2
Background: Immunoblotting shows a protein as a band on a membrane.

Another assay concerns OKD48-transgenic mouse. As to the kind of experiment: In vivo luminescence imaging of OKD48-transgenic mouse. The conditions noted are these: 12.5 mg/kg intraperitoneal, 6 hours later. As for the experimental part: The 4.5-kb Spel-SfiI fragment of p(3×ARE)TKbasal-hNrf2(1-433)-GL4-Flag was microinjected as a transgene into the fertilized eggs of a C57BL/6 mouse. […] The obtained mouse was used for in vivo imaging assay. After intraperitoneal injection of D-luciferin (4.5 mg), the mouse was analyzed according to a standard protocol using an in vivo imaging system IVIS (Xenogen Corp.). The experimental protocol involving the animal was approved by the animal research committee of RIKEN (Japan).
In order to monitor oxidative stress in vivo, an OKD48-transgenic mouse having a 3×ARE-driven Nrf2(1-433)-Luc expression gene was prepared. In order to confirm that cells placed under oxidative stress were able to be effectively used in vivo, ASN inducing oxidative stress in various tissues or organs was intraperitoneally injected (12.5 mg/kg) to a transgenic mouse.

Counter-ions that a name gives are not always drawn.

As for `O[C@H](CS)[C@H](O)CS` (racemic) [dithiothreitol], the “response of HeLa cells containing OKD48-Luc (luciferase assay)” value (from here on “response”) in assay [1] is reported as “rarely activated”.

As for `O=[As]O` [ASN, sodium arsenite], the “fluorescence of OKD48-Venus under microscopic observation” value in the assay with OKD48-Venus reporter is listed as “emitted fluorescence”. In addition, the “activity of OKD48-Luc under Nrf2 overexpression, effect of stressor treatment” value in assay [1] (HeLa cells with Nrf2 overexpression, 8 h treatment, FIG. 5D) was “slightly increased”. For the same molecule, the “response” value in assay [1] was “specifically responded”. The “induction of endogenous Nrf2 (Western blot)” value in the assay with endogenous Nrf2 is on record as “significantly induced”. Besides, in the assay on OKD48-Luc, the “OKD48-Luc at the protein level (Western blot, anti-Luc antibody)” value is reported as “rise”. Also, the “luminescence in the liver” value with OKD48-transgenic mouse (abdominal section, FIG. 8) is listed as “strong luminescence”. For the same molecule, the “luminescence in other tissues or organs (e.g., stomach and kidney)” value in the assay with OKD48-transgenic mouse (data not shown) was “detected to some extent”.

Regarding `CCOC(=O)/C=C\C(=O)OCC` [DEM, diethyl maleate], the “fluorescence of OKD48-Venus under microscopic observation” value in the assay on OKD48-Venus reporter is on record as “emitted fluorescence”. The “response” value in assay [1] is recorded as “specifically responded”. Also, the “induction of endogenous Nrf2 (Western blot)” value with endogenous Nrf2 is listed as “significantly induced”. Moreover, the “OKD48-Luc at the protein level (Western blot, anti-Luc antibody)” value in the assay with OKD48-Luc is reported as “rise”.

Regarding `COc1cc([C@@H]2c3cc4c(cc3[C@@H](O[C@@H]3O[C@@H]5CO[C@@H](C)O[C@H]5[C@H](O)[C@H]3O)[C@H]3COC(=O)[C@H]23)OCO4)cc(OC)c1O` [etoposide], in assay [1], the “response” value is recorded as “rarely activated”.

As to `C/C=C(/C)C(=O)O[C@H]1C(C)=C2[C@H]([C@@H]1OC(=O)CCCCCCC)[C@@](C)(OC(C)=O)C[C@H](OC(=O)CCC)[C@@]1(O)[C@H]2OC(=O)[C@@]1(C)O` [thapsigargin], the “response” value in assay [1] was “rarely activated”.

Take `O=C(CC(=O)C(F)(F)F)c1cccs1` [thenoyltrifluoroacetone]: in assay [1], the “response” value is recorded as “rarely activated”.

As for tunicamycin, the “response” value in assay [1] is “rarely activated”.
